pIC50: −log10 of the molar value. Read-outs that look alike come from different tables or passages of the source.

Data set [1] deals with tyrosine phosphoproteome of GBM tumors. The class given is in vivo, human. The settings on record: 4 sunitinib-treated versus 7 control GBM tumors, cut-off P < 0.05.
A short description of another data set: clinical. To be noted: human, in vivo, po, 50 mg once daily.
For a further data set, the system named is GBM cell lines. In words: cells. Format: cell-based. The settings on record: Homo sapiens, 72 h.
For a further data set, the system named is recurrent GBM. To be noted: sunitinib-treated patients with a recurrent GBM; cited from earlier work.
A further data set concerns 398 cancer cell lines. The settings on record: read-out: Geometric mean of the IC50, ref https://www.cancerrxgene.org/compound/Sunitinib/5/overview/ic50; cited from earlier work.
Another data set addresses PDGFRA (Homo sapiens, UniProt P16234). The class given is in vivo. The settings on record: known sunitinib target; 4 sunitinib-treated, 7 control tumors.
For data set [2] the following is noted: 5 patients with GBM.
The target in a further data set is PDGFRB (Homo sapiens, UniProt P09619). Format: in vivo. The settings on record: known sunitinib target; 4 sunitinib-treated, 7 control tumors.
PDGFRB, sequence (P09619 33-1106): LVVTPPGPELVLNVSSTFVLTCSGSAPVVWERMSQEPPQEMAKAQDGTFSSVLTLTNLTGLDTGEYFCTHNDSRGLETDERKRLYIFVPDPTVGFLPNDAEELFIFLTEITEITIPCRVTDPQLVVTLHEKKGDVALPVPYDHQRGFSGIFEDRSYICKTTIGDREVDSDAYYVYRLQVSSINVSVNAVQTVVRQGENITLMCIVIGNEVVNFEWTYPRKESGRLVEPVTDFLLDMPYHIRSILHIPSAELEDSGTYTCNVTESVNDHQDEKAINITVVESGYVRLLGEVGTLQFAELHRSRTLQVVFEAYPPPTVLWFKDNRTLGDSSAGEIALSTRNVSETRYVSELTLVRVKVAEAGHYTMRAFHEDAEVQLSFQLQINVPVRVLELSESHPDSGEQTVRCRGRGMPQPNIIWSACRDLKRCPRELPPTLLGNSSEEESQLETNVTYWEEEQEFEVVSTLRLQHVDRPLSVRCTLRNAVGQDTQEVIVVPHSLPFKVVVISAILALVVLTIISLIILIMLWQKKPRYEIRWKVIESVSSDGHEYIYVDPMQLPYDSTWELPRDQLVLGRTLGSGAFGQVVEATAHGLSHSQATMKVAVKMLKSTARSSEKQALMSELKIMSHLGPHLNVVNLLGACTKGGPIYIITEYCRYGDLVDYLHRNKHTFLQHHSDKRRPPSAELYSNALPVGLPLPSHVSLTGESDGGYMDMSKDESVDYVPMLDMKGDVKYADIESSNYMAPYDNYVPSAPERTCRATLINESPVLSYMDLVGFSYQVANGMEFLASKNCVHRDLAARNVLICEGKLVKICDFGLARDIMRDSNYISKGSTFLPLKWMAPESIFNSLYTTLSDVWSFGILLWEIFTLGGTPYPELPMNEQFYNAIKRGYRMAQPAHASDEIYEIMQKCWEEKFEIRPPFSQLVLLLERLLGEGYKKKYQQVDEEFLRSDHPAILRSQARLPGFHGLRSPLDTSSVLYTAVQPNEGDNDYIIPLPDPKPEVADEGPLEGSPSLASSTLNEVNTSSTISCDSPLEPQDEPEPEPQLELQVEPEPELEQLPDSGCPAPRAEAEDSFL
Data set [3] is classed as in vivo, human. To be noted: all patients, last dose in the morning on the day of surgery.
A further data set relates to PTM signatures. Details: species or system human. The settings on record: in vivo.

PDGFRA, sequence (P16234 24-1089): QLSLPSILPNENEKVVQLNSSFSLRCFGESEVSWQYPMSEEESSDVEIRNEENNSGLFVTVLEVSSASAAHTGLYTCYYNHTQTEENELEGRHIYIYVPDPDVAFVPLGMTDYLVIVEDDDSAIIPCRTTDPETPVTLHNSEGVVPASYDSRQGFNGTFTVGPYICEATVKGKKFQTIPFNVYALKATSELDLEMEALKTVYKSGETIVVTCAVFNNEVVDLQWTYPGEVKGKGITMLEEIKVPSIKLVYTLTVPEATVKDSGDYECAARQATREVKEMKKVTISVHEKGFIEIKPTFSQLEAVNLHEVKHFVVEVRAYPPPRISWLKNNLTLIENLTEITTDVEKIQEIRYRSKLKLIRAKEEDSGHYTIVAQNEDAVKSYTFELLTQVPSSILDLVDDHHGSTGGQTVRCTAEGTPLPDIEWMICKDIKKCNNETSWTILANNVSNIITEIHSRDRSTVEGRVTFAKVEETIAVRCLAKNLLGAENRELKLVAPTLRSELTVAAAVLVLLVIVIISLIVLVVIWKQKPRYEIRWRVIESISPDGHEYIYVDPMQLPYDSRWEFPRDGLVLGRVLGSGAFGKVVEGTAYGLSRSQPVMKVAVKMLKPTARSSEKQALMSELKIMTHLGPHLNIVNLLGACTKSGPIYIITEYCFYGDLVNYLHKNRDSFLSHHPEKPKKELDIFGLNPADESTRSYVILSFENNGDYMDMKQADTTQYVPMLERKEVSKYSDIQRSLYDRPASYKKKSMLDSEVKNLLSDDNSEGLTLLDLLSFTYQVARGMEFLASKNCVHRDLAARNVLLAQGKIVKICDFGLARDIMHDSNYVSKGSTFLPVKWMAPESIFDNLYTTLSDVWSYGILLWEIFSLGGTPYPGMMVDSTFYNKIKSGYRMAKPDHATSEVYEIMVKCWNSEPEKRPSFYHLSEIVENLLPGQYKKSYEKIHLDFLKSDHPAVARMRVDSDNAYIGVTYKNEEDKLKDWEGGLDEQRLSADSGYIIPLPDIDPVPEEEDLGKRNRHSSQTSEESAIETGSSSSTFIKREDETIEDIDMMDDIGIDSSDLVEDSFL

Regarding `CCN(CC)CCNC(=O)c1c(C)[nH]c(/C=C2\C(=O)Nc3ccc(F)cc32)c1C` [sunitinib], in data set [1], the “Number of significantly downregulated phosphopeptides” value came out at 23 and the “Number of significantly upregulated phosphopeptides” value is given as 108. Moreover, in the data set “clinical”, the Kp was 10, the concentration at 11 days turned out to be 111 nM, the concentration at 12 days was found to be 255 nM and the concentration at 13 days was determined as 479 nM. In “clinical”, this molecule came in with a concentration at 14 days of 105 nM and a concentration at 18 days of 194 nM. In addition, the pIC50 in the data set with GBM cell lines (read-out: Median IC50 in GBM cell lines) is 5.27. Moreover, in the data set with GBM cell lines (read-out: Range of IC50 in GBM cell lines), the pIC50 is 5.07 to 5.52. Besides, the “Tumor response and clinical benefit” value in the data set on recurrent GBM is “no tumor response nor clinical benefit”. In addition, the pIC50 in the data set with 398 cancer cell lines was 4.94. The “Kinase activity of PDGFRA (INKA), sunitinib-treated versus control” value at PDGFRA was “low and not significantly different between the groups”. In addition, the “Relation between sunitinib tumor accumulation and use of dexamethasone and anticonvulsants” value in data set [2] is reported as “No relation”. Moreover, the “Kinase activity of PDGFRB (INKA), sunitinib-treated versus control” value at PDGFRB was “low and not significantly different between the groups”. In addition, the “Perioperative complications of tumor resection after preoperative treatment” value in data set [3] is listed as “without perioperative complications”. In the data set with PTM signatures, the “Moderately significant enriched signatures (PTM-SEA)” value is reported as “Two moderately significant NetPath derived signatures” and the “Strongly significantly enriched phosphosite signatures (PTM-SEA)” value is on record as “three strongly significantly enriched phosphosite signatures”.
